From ChEMBL document CHEMBL3045772, “Amide derivatives of [6-acyl-2-benzothiazolinon-3-yl] acetic acids as potential analgesic and anti-inflammatory compounds” (Med Chem Res, 2010)

Experiments:
Format in all cases: functional
[1] = system: Mus musculus; assay: Anti-inflammatory activity in Mus musculus Swiss albino (mouse) assessed as inhibition of carrageenan-induced edema at 10 mg/kg, po pretreated 60 min before carrageenan-challenge measured after 360 min
[2] = system: Mus musculus; assay: Anti-inflammatory activity in Mus musculus Swiss albino (mouse) assessed as inhibition of carrageenan-induced edema at 10 mg/kg, po pretreated 60 min before carrageenan-challenge measured after 90 min
[3] = system: Mus musculus; assay: Anti-inflammatory activity in Mus musculus Swiss albino (mouse) assessed as inhibition of carrageenan-induced edema at 10 mg/kg, po pretreated 60 min before carrageenan-challenge measured after 270 min
[4] = system: Mus musculus; assay: Anti-inflammatory activity in Mus musculus Swiss albino (mouse) assessed as inhibition of carrageenan-induced edema at 10 mg/kg, po pretreated 60 min before carrageenan-challenge measured after 180 min

COc1ccc2c(c1)c(CC(=O)O)c(C)n2C(=O)c1ccc(Cl)cc1 [INDOMETHACIN]
inhibition in vivo at 10 mg/kg [1]: 40.1%
inhibition in vivo at 10 mg/kg [2]: 25.4%
inhibition in vivo at 10 mg/kg [3]: 36.2%
inhibition in vivo at 10 mg/kg [4]: 30.7%
